According to patent US20220119354A1, “DIAMINO-SUBSTITUTED PYRIDINES AND PYRIMIDINES AS HERBICIDES” (FMC Corporation, priority 2019, published 2022):

How the values were obtained:
Format in all cases: in vivo
corn (Zea mays) = experiment: Test A postemergence, corn; conditions: 0 to 100 scale
Method in brief: (§1)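 0–100 visual control rating, ~10 d post-treatment, greenhouse. Pre = directed soil spray on seeded loam/sand; post = spray at 1–2 leaf stage. Surfactant-containing solvent formulation.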

[1] = test system: ragweed (common ragweed, Ambrosia elatior); experiment: Test A postemergence, ragweed; conditions: 0 to 100 scale
Method in brief: as §1

[2] = test system: pigweed (Amaranthus retroflexus); experiment: Test A preemergence, pigweed; conditions: 0 to 100 scale
Method in brief: as §1

[3] = test system: ragweed (common ragweed, Ambrosia elatior); experiment: Test A preemergence, ragweed; conditions: 0 to 100 scale
Method in brief: as §1

[4] = test system: foxtail, giant (Setaria faberii); experiment: Test A preemergence, giant foxtail; conditions: 0 to 100 scale
Method in brief: as §1

[5] = test system: wheat (Triticum aestivum); experiment: Test A postemergence, wheat; conditions: 0 to 100 scale
Method in brief: as §1

[6] = test system: galium (catchweed bedstraw, Galium aparine); experiment: Test A postemergence, galium; conditions: 0 to 100 scale
Method in brief: as §1

kochia (Kochia scoparia) [7] = experiment: Test A postemergence, kochia; conditions: 0 to 100 scale
Method in brief: as §1

kochia (Kochia scoparia) [8] = experiment: Test A preemergence, kochia; conditions: 0 to 100 scale
Method in brief: as §1

[9] = test system: pigweed (Amaranthus retroflexus); experiment: Test A postemergence, pigweed; conditions: 0 to 100 scale
Method in brief: as §1

rice (Oryza sativa) = experiment: Test B flooded paddy test, rice; conditions: Flood, 250 g ai/ha, applied to paddy water, 2-leaf stage, visual evaluation after 13 to 15 d
Method in brief: (§2)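 2-leaf seedlings; pots flooded 3 cm above soil; compound added straight to paddy water; depth maintained. Greenhouse 13–15 d. Visual rating vs controls, 0–100 scale (0 = no effect, 100 = complete control).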

[10] = test system: barnyardgrass (Echinochloa crus-galli); experiment: Test A postemergence, barnyardgrass; conditions: 0 to 100 scale
Method in brief: as §1

[11] = test system: blackgrass (Alopecurus myosuroides); experiment: Test A postemergence, blackgrass; conditions: 0 to 100 scale
Method in brief: as §1

[12] = test system: sedge, umbrella (small-flower umbrella sedge, Cyperus difformis); experiment: Test B flooded paddy test, umbrella sedge; conditions: Flood, 250 g ai/ha, applied to paddy water, 2-leaf stage, visual evaluation after 13 to 15 d
Method in brief: as §2

[13] = test system: ducksalad (Heteranthera limosa); experiment: Test B flooded paddy test, ducksalad; conditions: Flood, 250 g ai/ha, applied to paddy water, 2-leaf stage, visual evaluation after 13 to 15 d
Method in brief: as §2

[14] = test system: foxtail, giant (Setaria faberii); experiment: Test A postemergence, giant foxtail; conditions: 0 to 100 scale
Method in brief: as §1

[15] = test system: ryegrass, Italian (Lolium multiflorum); experiment: Test A postemergence, Italian ryegrass; conditions: 0 to 100 scale
Method in brief: as §1

[16] = test system: barnyardgrass (Echinochloa crus-galli); experiment: Test A preemergence, barnyardgrass; conditions: 0 to 100 scale
Method in brief: as §1

[17] = test system: barnyardgrass (Echinochloa crus-galli); experiment: Test B flooded paddy test, barnyardgrass; conditions: Flood, 250 g ai/ha, applied to paddy water, 2-leaf stage, visual evaluation after 13 to 15 d
Method in brief: as §2

[18] = test system: ryegrass, Italian (Lolium multiflorum); experiment: Test A preemergence, Italian ryegrass; conditions: 0 to 100 scale
Method in brief: as §1

[19] = 125 g ai/ha, 0 is no effect, 100 is complete control

**Q.** CC[C@@H](Nc1ncc(C(F)(F)F)c(N)n1)c1cc2ccccc2o1 [Compound 21] was tested. Which “Plant response rating, Corn” value (corn (Zea mays); 1000 g ai/ha) did it give?
**A.** Its value is 100.

**Q.** What about the “Plant response rating, Ragweed” value ([1]; 1000 g ai/ha) of the same compound?
**A.** The value was 80.

**Q.** What about the “Plant response rating, Pigweed” value ([2]; 1000 g ai/ha) of the same compound?
**A.** The value was 100.

**Q.** What about the “Plant response rating, Ragweed” value ([3]; 1000 g ai/ha) of the same compound?
**A.** The value was 100.

**Q.** And the “Plant response rating, Foxtail, Giant” value ([4]; 1000 g ai/ha)?
**A.** Its value is 100.

**Q.** And the “Plant response rating, Wheat” value ([5]; 1000 g ai/ha)?
**A.** The value was 0.

**Q.** What about the “Plant response rating, Galium” value ([6]; 1000 g ai/ha) of the same compound?
**A.** The value was 80.

**Q.** What about the “Plant response rating, Kochia” value (kochia (Kochia scoparia) [7]; 1000 g ai/ha) of the same compound?
**A.** The value was 90.

**Q.** And the “Plant response rating, Kochia” value (kochia (Kochia scoparia) [8]; 1000 g ai/ha)?
**A.** The value was 80.

**Q.** And the “Plant response rating, Pigweed” value ([9]; 1000 g ai/ha)?
**A.** Its value is 100.

**Q.** What about the “Plant response rating, Rice (0 to 100 scale, 0 is no effect, 100 is complete control)” value (rice (Oryza sativa)) of the same compound?
**A.** Its value is 0.

**Q.** What about the “Plant response rating, Barnyardgrass” value ([10]; 1000 g ai/ha, 0 no effect, 100 complete control) of the same compound?
**A.** Its value is 80.

**Q.** What about the “Plant response rating, Blackgrass” value ([11]; 1000 g ai/ha) of the same compound?
**A.** The value was 80.

**Q.** What about the “Plant response rating, Sedge, Umbrella (0 to 100 scale, 0 is no effect, 100 is complete control)” value [12] of the same compound?
**A.** Its value is 65.

**Q.** What about the “Plant response rating, Ducksalad (0 to 100 scale, 0 is no effect, 100 is complete control)” value [13] of the same compound?
**A.** Its value is 60.

**Q.** What about the “Plant response rating, Foxtail, Giant” value ([14]; 1000 g ai/ha) of the same compound?
**A.** Its value is 70.

**Q.** What about the “Plant response rating, Ryegrass, Italian” value ([15]; 1000 g ai/ha) of the same compound?
**A.** The value was 50.

**Q.** What about the “Plant response rating, Barnyardgrass” value ([16]; 1000 g ai/ha) of the same compound?
**A.** The value was 100.

**Q.** And the “Plant response rating, Barnyardgrass (0 to 100 scale, 0 is no effect, 100 is complete control)” value [17]?
**A.** Its value is 0.

**Q.** What about the “Plant response rating, Ryegrass, Italian” value ([18]; 1000 g ai/ha) of the same compound?
**A.** The value was 80.

**Q.** CC(COc1cc(F)c(F)c(F)c1)Nc1ncc(C(F)(F)F)c(N)n1 (centres unmarked) [Compound 36] was tested. Which “Plant response rating, Corn” value (corn (Zea mays); 125 g ai/ha) did it give?
**A.** Its value is 10.

**Q.** And the “Plant response rating, Corn” value (corn (Zea mays); 500 g ai/ha)?
**A.** Its value is 0.

**Q.** What about the “Plant response rating, Ragweed” value ([1]; 125 g ai/ha) of the same compound?
**A.** Its value is 0.

**Q.** What about the “Plant response rating, Ragweed” value ([1]; 500 g ai/ha) of the same compound?
**A.** The value was 0.

**Q.** What about the “Pigweed plant response rating” value [2, 19] of the same compound?
**A.** The value was 0.

**Q.** And the “Plant response rating, Pigweed” value ([2]; 500 g ai/ha)?
**A.** The value was 0.

**Q.** And the “Ragweed plant response rating” value [3, 19]?
**A.** Its value is 0.

**Q.** And the “Plant response rating, Ragweed” value ([3]; 500 g ai/ha)?
**A.** Its value is 0.

**Q.** What about the “Foxtail, Giant plant response rating” value [4, 19] of the same compound?
**A.** The value was 0.

**Q.** And the “Plant response rating, Foxtail, Giant” value ([4]; 500 g ai/ha)?
**A.** The value was 0.

**Q.** What about the “Plant response rating, Wheat” value ([5]; 125 g ai/ha) of the same compound?
**A.** Its value is 0.

**Q.** What about the “Plant response rating, Wheat” value ([5]; 500 g ai/ha) of the same compound?
**A.** Its value is 0.

**Q.** What about the “Plant response rating, Galium” value ([6]; 125 g ai/ha) of the same compound?
**A.** The value was 0.

**Q.** And the “Plant response rating, Galium” value ([6]; 500 g ai/ha)?
**A.** The value was 0.

**Q.** And the “Plant response rating, Kochia” value (kochia (Kochia scoparia) [7]; 125 g ai/ha)?
**A.** The value was 0.

**Q.** What about the “Plant response rating, Kochia” value (kochia (Kochia scoparia) [7]; 500 g ai/ha) of the same compound?
**A.** Its value is 0.

**Q.** What about the “Kochia plant response rating” value (kochia (Kochia scoparia) [8]; [19]) of the same compound?
**A.** The value was 70.

**Q.** And the “Plant response rating, Kochia” value (kochia (Kochia scoparia) [8]; 500 g ai/ha)?
**A.** Its value is 30.

**Q.** And the “Plant response rating, Pigweed” value ([9]; 125 g ai/ha)?
**A.** The value was 0.

**Q.** And the “Plant response rating, Pigweed” value ([9]; 500 g ai/ha)?
**A.** The value was 0.

**Q.** And the “Plant response rating, Rice (0 to 100 scale, 0 is no effect, 100 is complete control)” value (rice (Oryza sativa))?
**A.** The value was 0.

**Q.** And the “Plant response rating, Barnyardgrass” value ([10]; 125 g ai/ha)?
**A.** Its value is 0.

**Q.** And the “Plant response rating, Barnyardgrass” value ([10]; 500 g ai/ha)?
**A.** The value was 0.

**Q.** And the “Plant response rating, Blackgrass” value ([11]; 125 g ai/ha)?
**A.** Its value is 0.

**Q.** What about the “Plant response rating, Blackgrass” value ([11]; 500 g ai/ha) of the same compound?
**A.** Its value is 0.

**Q.** What about the “Plant response rating, Sedge, Umbrella (0 to 100 scale, 0 is no effect, 100 is complete control)” value [12] of the same compound?
**A.** Its value is 0.

**Q.** And the “Plant response rating, Ducksalad (0 to 100 scale, 0 is no effect, 100 is complete control)” value [13]?
**A.** Its value is 0.

**Q.** What about the “Plant response rating, Foxtail, Giant” value ([14]; 125 g ai/ha) of the same compound?
**A.** Its value is 0.

**Q.** And the “Plant response rating, Foxtail, Giant” value ([14]; 500 g ai/ha)?
**A.** The value was 0.

**Q.** And the “Plant response rating, Ryegrass, Italian” value ([15]; 125 g ai/ha)?
**A.** The value was 0.

**Q.** And the “Plant response rating, Ryegrass, Italian” value ([15]; 500 g ai/ha)?
**A.** Its value is 0.

**Q.** What about the “Barnyardgrass plant response rating” value [16, 19] of the same compound?
**A.** The value was 0.

**Q.** What about the “Plant response rating, Barnyardgrass” value ([16]; 500 g ai/ha) of the same compound?
**A.** Its value is 0.

**Q.** What about the “Plant response rating, Barnyardgrass (0 to 100 scale, 0 is no effect, 100 is complete control)” value [17] of the same compound?
**A.** The value was 0.

**Q.** And the “Ryegrass, Italian plant response rating” value [18, 19]?
**A.** The value was 0.

**Q.** What about the “Plant response rating, Ryegrass, Italian” value ([18]; 500 g ai/ha) of the same compound?
**A.** Its value is 0.
